The values that follow come from paper PMC7146755, “Structure-Guided Design and In-Cell Target Profiling of a Cell-Active Target Engagement Probe for PARP Inhibitors” (ACS Chemical Biology, 2020).

Structures are written as SMILES.

One assay has as its target T1, PARP2 (recombinant) (Homo sapiens, UniProt Q9UGN5).
T1 construct: recombinant
Briefly: fluorescence polarization competition binding.

The next assay addresses T2, PARP1 (recombinant) (Homo sapiens, UniProt P09874).
T2 construct: recombinant
Briefly: fluorescence polarization competition binding. Background: Polarisation of emitted light reports the rotation of a fluorescent probe.

In assay [1] the target is T3, GST-tagged PARP6 (recombinant) (Homo sapiens, UniProt Q2NL67).
T3 construct: recombinant GST fusion with HRV3C site in the linker, 98 kDa; intact PARP6 71 kDa after cleavage
The assay can be described thus: fluorescence polarization competition binding. The source says:
fluorescence polarization competition binding on GST-tagged PARP6 (recombinant) | IC50 of PARPYnD for PARP6 as determined by the in vitro binding assay

Assay [2] addresses T3, GST-tagged PARP6 (recombinant). Briefly: competition of PARPYnD photoaffinity labeling, in-gel fluorescence and immunoblot. Format: biochemical. The following applies: recombinant GST-PARP6 spiked into MDA-MB-468 lysate; […] nm UV. (A western blot detects proteins with antibodies after separation by electrophoresis.)

T3 sequence (Q2NL67 whole entry, the tested form may be a part): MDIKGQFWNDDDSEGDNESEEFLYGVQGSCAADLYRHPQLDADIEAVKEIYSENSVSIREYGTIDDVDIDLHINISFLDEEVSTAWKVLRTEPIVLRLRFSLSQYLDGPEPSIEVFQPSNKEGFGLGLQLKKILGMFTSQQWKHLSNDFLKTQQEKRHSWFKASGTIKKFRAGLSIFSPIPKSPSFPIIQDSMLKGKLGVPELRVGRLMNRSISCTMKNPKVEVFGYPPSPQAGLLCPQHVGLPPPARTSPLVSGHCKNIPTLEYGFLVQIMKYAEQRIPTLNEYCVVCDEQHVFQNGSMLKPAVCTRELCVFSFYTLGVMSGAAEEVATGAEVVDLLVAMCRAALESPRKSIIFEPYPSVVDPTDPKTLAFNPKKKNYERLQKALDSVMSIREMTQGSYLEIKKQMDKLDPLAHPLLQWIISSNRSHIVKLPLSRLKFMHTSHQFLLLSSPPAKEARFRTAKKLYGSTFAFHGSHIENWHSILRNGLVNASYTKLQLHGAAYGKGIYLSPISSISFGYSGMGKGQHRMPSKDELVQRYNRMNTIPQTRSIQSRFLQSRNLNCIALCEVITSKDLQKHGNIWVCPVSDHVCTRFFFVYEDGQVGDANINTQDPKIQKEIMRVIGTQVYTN
T1 sequence (Q9UGN5 whole entry): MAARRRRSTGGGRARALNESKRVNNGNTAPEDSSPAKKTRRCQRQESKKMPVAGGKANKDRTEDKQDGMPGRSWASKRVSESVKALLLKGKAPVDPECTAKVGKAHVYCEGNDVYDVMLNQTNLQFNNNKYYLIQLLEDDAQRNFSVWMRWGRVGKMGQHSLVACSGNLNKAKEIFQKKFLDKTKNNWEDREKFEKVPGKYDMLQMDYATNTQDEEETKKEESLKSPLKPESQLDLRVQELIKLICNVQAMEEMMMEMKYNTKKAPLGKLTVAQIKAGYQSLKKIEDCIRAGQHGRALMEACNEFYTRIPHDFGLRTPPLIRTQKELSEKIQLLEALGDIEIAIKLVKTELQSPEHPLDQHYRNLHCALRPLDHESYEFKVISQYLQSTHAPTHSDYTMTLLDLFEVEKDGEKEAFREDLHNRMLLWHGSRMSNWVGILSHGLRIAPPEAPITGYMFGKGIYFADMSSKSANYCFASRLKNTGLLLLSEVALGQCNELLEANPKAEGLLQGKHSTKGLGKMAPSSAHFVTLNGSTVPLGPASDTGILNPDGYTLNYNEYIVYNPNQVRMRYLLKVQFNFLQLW
T2 sequence (P09874 2-1014): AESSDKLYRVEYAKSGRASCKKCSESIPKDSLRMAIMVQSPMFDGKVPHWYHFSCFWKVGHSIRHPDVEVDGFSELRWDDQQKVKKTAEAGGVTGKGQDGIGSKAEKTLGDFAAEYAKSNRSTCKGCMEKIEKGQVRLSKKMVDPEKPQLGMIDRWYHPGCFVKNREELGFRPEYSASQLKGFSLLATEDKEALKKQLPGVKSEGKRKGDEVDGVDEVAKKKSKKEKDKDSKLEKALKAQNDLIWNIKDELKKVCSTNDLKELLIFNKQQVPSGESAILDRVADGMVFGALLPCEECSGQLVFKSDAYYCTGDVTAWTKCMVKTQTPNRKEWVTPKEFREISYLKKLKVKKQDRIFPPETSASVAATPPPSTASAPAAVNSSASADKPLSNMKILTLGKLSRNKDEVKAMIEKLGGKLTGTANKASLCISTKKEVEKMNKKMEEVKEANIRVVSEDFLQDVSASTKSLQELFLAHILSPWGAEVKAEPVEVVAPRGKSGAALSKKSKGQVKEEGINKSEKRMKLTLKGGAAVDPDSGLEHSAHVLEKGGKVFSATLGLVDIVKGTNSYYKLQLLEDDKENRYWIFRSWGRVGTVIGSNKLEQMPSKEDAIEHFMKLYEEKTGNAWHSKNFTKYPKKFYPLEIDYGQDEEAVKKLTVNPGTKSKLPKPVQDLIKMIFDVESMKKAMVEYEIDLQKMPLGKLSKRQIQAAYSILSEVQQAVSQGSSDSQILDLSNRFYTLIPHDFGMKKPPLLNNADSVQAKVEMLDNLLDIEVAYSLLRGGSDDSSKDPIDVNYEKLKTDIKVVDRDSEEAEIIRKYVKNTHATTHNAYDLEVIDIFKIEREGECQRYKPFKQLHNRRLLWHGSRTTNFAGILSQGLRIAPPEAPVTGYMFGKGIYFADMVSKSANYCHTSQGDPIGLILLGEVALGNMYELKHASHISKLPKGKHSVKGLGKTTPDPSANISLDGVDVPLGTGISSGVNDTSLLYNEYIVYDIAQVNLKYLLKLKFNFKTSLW

Usually IC50 stands for the concentration at which inhibition is half-maximal. Turning to `C#CCCC1(CCC(=O)Nc2cnc(N3CCN(C(=O)c4cccc(Cc5n[nH]c(=O)c6ccccc56)c4)CC3)c(C#N)c2)N=N1` [PARPYnD], the values for the IC50 (on PARP2 (recombinant); on PARP1 (recombinant); in assay [1]) were 6 nM, 38 nM and 230 nM, respectively.

Regarding `C[C@H]1Cn2c(nnc2C(C)(F)F)CN1C(=O)c1cccc(C(F)(F)c2n[nH]c(=O)c3ccccc23)c1` [AZ0108], the “competition of PARPYnD photoaffinity labeling, in-gel fluorescence and immunoblo” value in assay [2] is listed as “which was depleted by PARP6 inhibitor AZ0108”.
